{"source": "patent US11332459B2", "about": "(TEIJIN PHARMA LIMITED, priority 2017, dated 2022)"}
{"molecular_target": "T1, human TRPC6 (Homo sapiens, UniProt Q9Y210)", "T1 construct": "expressed in transfected cells", "T1 sequence (Q9Y210 1-931)": "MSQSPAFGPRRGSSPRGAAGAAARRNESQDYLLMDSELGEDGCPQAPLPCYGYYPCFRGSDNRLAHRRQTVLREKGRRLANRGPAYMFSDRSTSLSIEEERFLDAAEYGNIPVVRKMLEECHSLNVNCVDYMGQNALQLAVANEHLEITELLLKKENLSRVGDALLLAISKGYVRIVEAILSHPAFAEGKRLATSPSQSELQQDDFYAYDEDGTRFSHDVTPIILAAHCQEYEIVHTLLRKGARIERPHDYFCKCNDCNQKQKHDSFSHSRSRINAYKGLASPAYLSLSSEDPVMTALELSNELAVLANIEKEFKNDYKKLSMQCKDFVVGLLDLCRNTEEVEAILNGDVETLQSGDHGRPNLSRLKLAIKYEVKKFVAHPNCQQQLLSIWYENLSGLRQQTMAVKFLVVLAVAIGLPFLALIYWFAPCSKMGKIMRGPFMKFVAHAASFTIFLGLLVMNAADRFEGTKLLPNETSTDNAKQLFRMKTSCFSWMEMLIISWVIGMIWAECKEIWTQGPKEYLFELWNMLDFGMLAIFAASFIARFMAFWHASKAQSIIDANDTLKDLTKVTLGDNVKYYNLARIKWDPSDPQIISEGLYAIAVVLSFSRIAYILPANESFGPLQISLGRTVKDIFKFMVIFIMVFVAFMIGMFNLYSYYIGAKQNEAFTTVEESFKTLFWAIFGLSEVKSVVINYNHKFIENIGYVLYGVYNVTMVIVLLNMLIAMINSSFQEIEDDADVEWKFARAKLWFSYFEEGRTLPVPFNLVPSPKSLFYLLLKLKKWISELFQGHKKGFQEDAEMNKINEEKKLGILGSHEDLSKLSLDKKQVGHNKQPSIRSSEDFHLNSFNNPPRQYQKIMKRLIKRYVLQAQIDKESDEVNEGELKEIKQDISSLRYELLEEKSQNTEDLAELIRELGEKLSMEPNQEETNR", "experiment": "TRPC6 calcium flux assay (FLIPR, OAG-stimulated calcium influx)", "assay_type": "cell-based", "details": "HEK293 cells stably transfected with human TRPC6, read-out: hTRPC6 Potency", "method": "Biological Example 1 TRPC6 Calcium Flux Assay\nPotency of TRPC6 (Transient receptor potential channel family C6) inhibitors were measured by their inhibition of Calcium influx trigged by […] (1-Oleoyl-2-acetyl-sn-glycerol, Millipore Sigma, O6754) stimulation on HEK293 cells stablely transfected with human TRPC6 using a FLIPR tetra system. Cells were grown in a humidified environment at 37° C. under 5% CO2 using the growth medium with the following selective reagents (Dulbecco's Modified Eagle's Medium (DMEM) high glucose, 10% Fetal Bovine Serum, 1×PSGlu (penicillin-streptomycin glutamine), 1×NEAA (Non-essential amino acid), 1× Na Pyruvate and 200 ug/ml Hygromycin). For general passage, cells were grown to 70-90% confluency; the media was removed, and the cells were gently washed 2 times with calcium and magnesium free PBS (phosphate-buffered saline). Trypsin (3 mL) was applied for 5 minutes at 37° C. The cells were dislodged by rapping flask against base of a hand and 7 mL of growth medium was added to deactivate trypsin and re-suspend cells. The usual splitting schedule was 1:5 every 2-3 days.\nCells were plated the day before the assay, plating cell density is 1.0-1.5×10^4/25 μl/well in poly-D-lysine (PDL) coated 384-well plates using either multichannel pipettes or multidrop. These cells were first incubated with fluorescence dye at room temperature for 90-120 minutes after they were grown on PDL-coated 384-well black plates overnight (Dye loading buffer 10 ml example: 9 mL assay buffer, 1 mL, 10×PBX signal enhancer, 10 μL Calcium indicator). The cells were incubated with a dose of compounds for 25 minutes before being stimulated with TRPC6 agonist OAG. The OAG solution was prepared by adding OAG into assay buffer (Ca ringer solution base: 10 mM HEPES (4-(2-hydroxyethyl)-1-piperazine-ethanesulfonic acid), 4 mM MgCl2, 120 mM NaCl, 5 mM KCl, pH=7.2 @25° C.)+0.1% BSA+2 mM CaCl2) to the concentration of 0.2 mM/2% DMSO, which achieves a final on cell concentration of 50 uM/0.5% DMSO. 12.5 uL OAG mixture was added and the activation of the TRPC6 channel was measured by the change of intracellular Calcium levels on FLIPR terra system.\nData was acquired by measuring the fluorescent peak signal subtracted from the background during the 180 second imaging frame. Each data point is further normalized to 100% of OAG triggered signal vs. buffer. Table 16 provides the IC50 for each compound, which data is obtained by plotting peak signal over the compound dose.", "units": {"IC50": "nM"}}
{"smiles": "N#Cc1ccc(Cn2c(N3CC[C@@H](F)[C@H](N)C3)nc3c(F)cc(F)cc32)cc1", "note": "[Example 157, 4-((2-((3R,4R)-3-amino-4-fluoro-1-piperidinyl)-4,6-difluoro-1H-benzimidazol-1-yl)methyl)benzonitrile]", "IC50": 0.501}
{"smiles": "N#C[C@H]1CCCN1C(=O)Cn1c(N2CC[C@@H](F)[C@H](N)C2)nc2cc(F)c(F)cc21", "note": "[Example 636, (R)-1-(2-(2-((3R,4R)-3-amino-4-fluoropiperidin-1-yl)-5,6-difluoro-1H-benzo[d]imidazol-1-yl)acetyl)pyrrolidine-2-carbonitrile]", "IC50": 326}
{"smiles": "N[C@@H]1CN(c2nc3ccc(F)cc3n2Cc2nnc(C(F)F)s2)CC[C@H]1F", "note": "[Example 573, (3R,4R)-1-(1-((5-(difluoromethyl)-1,3,4-thiadiazol-2-yl)methyl)-6-fluoro-1H-benzo[d]imidazol-2-yl)-4-fluoropiperidin-3-amine]", "IC50": 117}
{"smiles": "N#Cc1ccc(Cn2c(N3CC[C@H]4OCCN[C@@H]4C3)nc3ccccc32)nc1", "note": "[Example 131, 6-((2-((4aR,8aR)-hexahydro-2H-pyrido[4,3-b][1,4]oxazin-6(5H)-yl)-1H-benzimidazol-1-yl)methyl)-3-pyridinecarbonitrile]", "IC50": 82.6}
{"smiles": "N#Cc1ccc(Cn2c(N3CC[C@H](N)C3)nc3ccccc32)cc1", "note": "[Example 166, (S)-4-((2-(3-aminopyrrolidin-1-yl)-1H-benzo[d]imidazol-1-yl)methyl)benzonitrile]", "IC50": 560}
{"smiles": "C[C@H](c1ccccn1)N(C)C(=O)Cn1c(N2CC[C@@H](F)[C@H](N)C2)nc2cc(F)c(F)cc21", "note": "[Example 604]", "IC50": 7.78}
{"smiles": "Cc1nnc(Cn2c(N3CC[C@@H](F)[C@H](N)C3)nc3cc(F)cnc32)s1", "note": "[Example 590, (3R,4R)-4-fluoro-1-(6-fluoro-3-((5-methyl-1,3,4-thiadiazol-2-yl)methyl)-3H-imidazo[4,5-b]pyridin-2-yl)piperidin-3-amine]", "IC50": 1440}
{"smiles": "N#Cc1ccc(Cn2c(N3CC[C@@H](F)[C@H](N)C3)nc3cc(F)cc(F)c32)cc1", "note": "[Example 156]", "IC50": 61.7}
{"smiles": "CS(=O)(=O)c1ccc(Cn2c(N3CC[C@@H](F)[C@H](N)C3)nc3cc(F)c(F)cc32)nc1", "note": "[Example 562, (3R,4R)-1-(5,6-difluoro-1-((5-(methylsulfonyl)pyridin-2-yl)methyl)-1H-benzo[d]imidazol-2-yl)-4-fluoropiperidin-3-amine]", "IC50": 20.8}
{"smiles": "N[C@@H]1CN(c2nc3cc(F)c(F)cc3n2CC(=O)N(c2ccccc2)C2C=CS(=O)(=O)C2)CC[C@H]1F", "note": "(mixture of isomers) [Example 515, 2-(2-((3R,4R)-3-amino-4-fluoropiperidin-1-yl)-5,6-difluoro-1H-benzo[d]imidazol-1-yl)-N-(1,1-dioxido-2,3-dihydrothiophen-3-yl)-N-phenylacetamide]", "IC50": 186}
{"smiles": "N[C@@H]1CN(c2nc3cc(F)ccc3n2Cc2nc(C(F)(F)F)no2)CC[C@H]1F", "note": "[Example 584, (3R,4R)-4-fluoro-1-(5-fluoro-1-((3-(trifluoromethyl)-1,2,4-oxadiazol-5-yl)methyl)-1H-benzo[d]imidazol-2-yl)piperidin-3-amine]", "IC50": 546}
{"smiles": "CC(C)(C#N)c1ccc(Cn2c(N3CCC[C@@H](N)C3)nc3ccccc32)cc1", "note": "[Example 380, (R)-2-(4-((2-(3-aminopiperidin-1-yl)-1H-benzo[d]imidazol-1-yl)methyl)phenyl)-2-methylpropanenitrile]", "IC50": 17000}
{"smiles": "N[C@@H]1CN(c2nc3cc(F)c(F)cc3n2CC(=O)N2CCc3sccc3C2)CC[C@H]1F", "note": "[Example 505, 2-(2-((3R,4R)-3-amino-4-fluoropiperidin-1-yl)-5,6-difluoro-1H-benzo[d]imidazol-1-yl)-1-(6,7-dihydrothieno[3,2-c]pyridin-5(4H)-yl)ethan-1-one]", "IC50": 43.2}
{"smiles": "N[C@@H]1CN(c2nc3cc(F)c(F)cc3n2CC(=O)N2CCC2)CC[C@H]1F", "note": "[Example 236, 2-(2-((3R,4R)-3-amino-4-fluoropiperidin-1-yl)-5,6-difluoro-1H-benzo[d]imidazol-1-yl)-1-(azetidin-1-yl)ethanone]", "IC50": 23.8}
